# Experimental data from patent US20230348358A1, “Serotonin Receptor Modulators” (Northeastern University, priority 2020, published 2023).
# “Also recorded” adds a separate entry of the source. Like-named read-outs stand apart in the source and are kept apart here.
# Columns and labels:
# 5HT2C receptors = target: T1, 5HT2C receptors (Homo sapiens, UniProt P28335); experiment: 5HT2C functional assay; assay type: cell-based; conditions: read-out: EC50 at 5HT2C receptors (agonist)
# T1 construct: host or cells: HEK293, transient
# T1 sequence (P28335 33-458): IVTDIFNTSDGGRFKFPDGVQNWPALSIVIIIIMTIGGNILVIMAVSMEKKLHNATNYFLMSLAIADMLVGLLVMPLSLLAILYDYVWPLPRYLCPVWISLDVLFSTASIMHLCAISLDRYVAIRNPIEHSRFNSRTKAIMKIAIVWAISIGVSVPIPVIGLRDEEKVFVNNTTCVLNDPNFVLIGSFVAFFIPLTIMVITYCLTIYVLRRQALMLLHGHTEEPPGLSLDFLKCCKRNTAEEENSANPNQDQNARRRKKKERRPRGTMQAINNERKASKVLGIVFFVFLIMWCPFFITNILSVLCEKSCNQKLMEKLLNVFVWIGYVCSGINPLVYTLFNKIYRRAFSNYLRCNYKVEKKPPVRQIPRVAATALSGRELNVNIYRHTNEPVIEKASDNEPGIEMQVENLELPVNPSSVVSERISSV
# 5HT2A receptors = target: T2, 5HT2A receptors (Homo sapiens, UniProt P28223); experiment: 5-HT2A function in HEK cells over-expressing the receptor; assay type: cell-based
# T2 construct: host or cells: HEK293, transient
# C57BL/6J mice = experiment: DOI-elicited head-twitch response (HTR); assay type: in vivo, mouse
# Text: The 5-HT2A receptor is a predominant 5-HT receptor in the cortex, and serves important excitation modulation functions on glutamate pyramidal and GABA neurons.
# BL/6J mice = experiment: Serotonin syndrome-like behavior observation; assay type: in vivo, mouse
# [1] = Plasma and brain concentrations by LC-MS/MS after systemic administration; assay type: in vivo, mouse; conditions: for concentration at 30 min / concentration at 60 min / concentration at 90 min: 3.0 mg/kg subcutaneous, mean (SEM); for concentration at 30 min: 30 min after injection; for concentration at 60 min: 60 min after injection; for concentration at 90 min: 90 min after injection
# Text: (2S)-5-FPT is neurobehaviorally active after oral administration.
# [2] = mouse, in vivo, listed as (2S)-5-FPT, HCl
# [3] = mouse, brain, read-out: Brain concentration
# [4] = mouse, plasma, read-out: Plasma concentration
# T2 sequence (P28223 whole entry): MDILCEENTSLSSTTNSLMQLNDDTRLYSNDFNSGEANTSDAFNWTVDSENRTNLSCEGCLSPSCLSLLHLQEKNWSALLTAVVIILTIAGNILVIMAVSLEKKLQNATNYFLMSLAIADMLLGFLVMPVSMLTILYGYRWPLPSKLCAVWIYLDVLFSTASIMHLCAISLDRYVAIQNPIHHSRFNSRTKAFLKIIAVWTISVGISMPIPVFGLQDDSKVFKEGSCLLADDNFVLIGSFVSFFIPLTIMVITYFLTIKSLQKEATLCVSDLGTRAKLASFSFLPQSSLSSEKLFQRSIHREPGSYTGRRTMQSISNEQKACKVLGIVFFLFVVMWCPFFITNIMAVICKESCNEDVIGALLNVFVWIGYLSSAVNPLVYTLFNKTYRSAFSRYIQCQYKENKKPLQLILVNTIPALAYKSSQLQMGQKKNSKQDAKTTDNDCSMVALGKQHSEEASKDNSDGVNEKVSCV
compound,measurement,setting,value
"CN(C)[C@H]1CCc2c(cccc2-c2ccccc2F)C1.Cl [(S)-5-FPT, (2S)-5-(2-fluorophenyl)-N,N-dimethyl-1,2,3,4-tetrahydronaphthalen-2-amine HCl]",EC50,5HT2C receptors,230 nM
same,Function at 5-HT2A receptors,5HT2A receptors,weak partial agonist activity
same,DOI HTR at 3 hours post-administration,"C57BL/6J mice; 5.6 mg/kg, 3 hours post-administration",did not block the DOI HTR
same,Time for which attenuation of the DOI HTR remained significant,"C57BL/6J mice; 5.6 mg/kg, post-administration",up to 2 hours
same,DOI-elicited HTR,C57BL/6J mice; [2],dose-dependently attenuated the DOI-elicited HTR; also recorded: significantly attenuated
same,Oral activity,C57BL/6J mice; oral administration,orally active
same,Flat Body,"BL/6J mice; 5.6 mg/kg, mean (SEM) number of six one-minute sessions with the behavior (score/6)",0(0)
same,Forepaw Tread,"BL/6J mice; 5.6 mg/kg, mean (SEM) score/6",0(0)
same,Head Weave,"BL/6J mice; 5.6 mg/kg, mean (SEM) score/6",0(0)
same,Moon Walk,"BL/6J mice; 5.6 mg/kg, mean (SEM) score/6",0.3(0.2)
same,Piloerection,"BL/6J mice; 5.6 mg/kg, mean (SEM) score/6",0(0)
same,Straub Tail,"BL/6J mice; 5.6 mg/kg, mean (SEM) score/6",0(0)
same,Tremor,"BL/6J mice; 5.6 mg/kg, mean (SEM) score/6",0(0)
same,Serotonin syndrome,BL/6J mice; [2],did not result in symptoms of serotonin syndrome; also recorded: does not produce serotonin syndrome-like symptoms
same,concentration at 30 min,[1]; [3],1780 ng/g
same,concentration at 60 min,[1]; [3],2160 ng/g
same,concentration at 90 min,[1]; [3],1460 ng/g
same,Blood-brain barrier penetration,"[1]; mouse, in vivo",readily crosses the blood-brain barrier
same,concentration at 30 min,[1]; [4],114 ng/mL
same,concentration at 60 min,[1]; [4],118 ng/mL
same,concentration at 90 min,[1]; [4],70 ng/mL
same,Peripheral clearance,[1]; plasma levels lower than brain,rapidly cleared in the periphery
